From US8193168B2, “Use of a TRPM5 inhibitor to regulate insulin and GLP-1 release” (Redpoint Bio Corporation, priority 2007, dated 2012)

Legend:
GLUTag cells = assay: GLP-1 release from GLUTag cells (GLP-1 ELISA); assay type: cell-based, mouse; details: 12.5 mM glucose, FIG. 17
Description: Mouse GLUTag cells are a native intestinal cell line which expresses TRPM5. The cell line was obtained from Dr. Daniel J. Drucker in the Division of Endocrinology, Department of Medicine, at University of Toronto, and grown in Invitrogen Dulbecco's Modified Eagle's Medium (DMEM) high glucose (Cat #: 11995) with 10% fetal bovine serum (FBS) and 1× penn/strep antibiotic mix in a 37° C. incubator with 5% CO2.
All reagents and media were pre-warmed to room temperature prior to the beginning of the experiment. Substrate diluent and the light-sensitive Substrate were thawed out right before use.
BD 96-well Matrigel-coated plates (Fisher, Cat #: 08-774-166) with GLUTag cells were rehydrated using 100 μL of plating media (Invitrogen's (Cat #: 31985) OPTI-Modified Eagle's Medium (MEM) with 10% FBS and 1× penn/strep antibiotic mix) and incubated for 30 minutes in a 37° C. incubator with 5% CO2. GLUTag cells were then trypsinized and counted. A cell dilution with seeding density of 7.5×10^5 cells/ml of GLUTag cells was created. The rehydration media was aspirated from the Matrigel coated plate. […] of cell dilution were plated into each well of the plate. The plates were then incubated overnight in a 37° C. incubator with 5% CO2.
The following protocol utilized the Millipore GLP-1 ELISA Kit (Cat. #: EGLP-35K) to analyze GLP-1 secretion from GLUTag cells in the presence of TRPM5 inhibitors/enhancers and glucose.
Stock solutions and dilution plates of TRPM5 inhibitors or enhancers were prepared. 1% of bovine serum albumin (BSA) was added to Krebb's Ringer Bicarbonate Buffer (KRBB) right before use. KRBB consists of 118.5 mM NaCl, 2.54 mM CaCl2.2H2O, 1.19 mM KH2PO4, 4.74 mM KCl, 25 mM NaHCO3, 1.19 mM MgSO4.7H2O, and 10 mM HEPES buffer at pH 7.4. The cell plates were incubated with 100 μL of KRBB for 30 minutes. The KRBB buffer was then aspirated. This incubation step was repeated once. The KRBB buffer was aspirated and replaced with 150 μL of the same buffer containing various concentration of TRPM5 inhibitors or enhancers and glucose, i.e. 12.5 mM glucose and 1.5 μM TRPM5 inhibitors. KRBB buffer without the TRPM5 inhibitors/enhancers and glucose were also tested in triplicates. Static incubations of treated cells were then performed for 2 h in a 37° C. incubator with 5% CO2.
During the last 30 minutes of the two-hour incubation, 96-well ELISA plates were prepared as follows. […]

TRPM5 = biological target: T1, TRPM5 (Homo sapiens, UniProt Q9NZQ8); assay: TRPM5 inhibition (FLIPR Membrane Potential Assay); assay type: cell-based
T1 sequence (Q9NZQ8 1-1165): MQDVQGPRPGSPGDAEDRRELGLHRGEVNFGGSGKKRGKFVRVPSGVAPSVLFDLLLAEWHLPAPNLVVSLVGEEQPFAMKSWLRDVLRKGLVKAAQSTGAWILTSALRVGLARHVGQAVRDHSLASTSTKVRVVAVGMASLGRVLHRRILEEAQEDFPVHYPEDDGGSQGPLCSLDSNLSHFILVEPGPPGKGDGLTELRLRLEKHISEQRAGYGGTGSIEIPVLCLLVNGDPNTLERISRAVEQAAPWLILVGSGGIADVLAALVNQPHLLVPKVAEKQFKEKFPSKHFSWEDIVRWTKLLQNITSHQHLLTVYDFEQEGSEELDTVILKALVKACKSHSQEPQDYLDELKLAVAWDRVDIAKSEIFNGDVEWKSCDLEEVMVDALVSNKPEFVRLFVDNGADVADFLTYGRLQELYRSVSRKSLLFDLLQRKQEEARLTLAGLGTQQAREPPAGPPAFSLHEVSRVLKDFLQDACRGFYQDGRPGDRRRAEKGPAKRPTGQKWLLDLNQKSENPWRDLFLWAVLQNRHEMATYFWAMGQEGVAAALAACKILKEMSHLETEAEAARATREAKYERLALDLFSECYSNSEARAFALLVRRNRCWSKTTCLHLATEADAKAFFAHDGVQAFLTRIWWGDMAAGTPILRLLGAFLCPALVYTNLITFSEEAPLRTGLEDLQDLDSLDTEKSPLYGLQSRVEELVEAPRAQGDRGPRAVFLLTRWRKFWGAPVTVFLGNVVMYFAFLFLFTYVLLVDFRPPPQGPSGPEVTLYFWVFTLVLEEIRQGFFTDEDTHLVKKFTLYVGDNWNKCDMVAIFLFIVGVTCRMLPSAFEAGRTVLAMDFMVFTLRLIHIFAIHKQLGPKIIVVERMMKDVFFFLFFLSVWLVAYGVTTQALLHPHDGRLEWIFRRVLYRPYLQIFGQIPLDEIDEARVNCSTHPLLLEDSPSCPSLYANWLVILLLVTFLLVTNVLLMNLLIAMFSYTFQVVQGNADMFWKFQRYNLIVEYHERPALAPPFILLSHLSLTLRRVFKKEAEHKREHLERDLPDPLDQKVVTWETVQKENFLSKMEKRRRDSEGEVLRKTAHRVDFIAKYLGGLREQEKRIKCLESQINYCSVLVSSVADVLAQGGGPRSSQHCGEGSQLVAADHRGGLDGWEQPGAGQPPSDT

| Structure (SMILES) | GLP-1 secretion (GLUTag cells) | efficacy and potency of GLP-1 secretion, compared between compounds (GLUTag cells) | IC50 (TRPM5) |
| --- | --- | --- | --- |
| COc1ccc(/C=N/NC(=O)CCn2c3ccccc3c3ccccc32)cc1OC [Example 23, 3-Carbazol-9-ylpropionic acid (3,4-dimethoxybenzylidene)hydrazide] | increase GLP-1 secretion | more potent than the compound of Example 3 | 500 nM |
| COc1ccc(/C=N/NC(=O)Cc2cccc3ccccc23)cc1OC [Example 3, (E)-N′-(3,4-Dimethoxybenzylidene)-2-(naphthalene-1-yl)acetohydrazide] | increase GLP-1 secretion | increases the efficacy of GLP-1 secretion | 600 nM |
